One test addresses T1, sEH (human recombinant) (Homo sapiens, UniProt P34913).
T1 sequence (P34913 1-555): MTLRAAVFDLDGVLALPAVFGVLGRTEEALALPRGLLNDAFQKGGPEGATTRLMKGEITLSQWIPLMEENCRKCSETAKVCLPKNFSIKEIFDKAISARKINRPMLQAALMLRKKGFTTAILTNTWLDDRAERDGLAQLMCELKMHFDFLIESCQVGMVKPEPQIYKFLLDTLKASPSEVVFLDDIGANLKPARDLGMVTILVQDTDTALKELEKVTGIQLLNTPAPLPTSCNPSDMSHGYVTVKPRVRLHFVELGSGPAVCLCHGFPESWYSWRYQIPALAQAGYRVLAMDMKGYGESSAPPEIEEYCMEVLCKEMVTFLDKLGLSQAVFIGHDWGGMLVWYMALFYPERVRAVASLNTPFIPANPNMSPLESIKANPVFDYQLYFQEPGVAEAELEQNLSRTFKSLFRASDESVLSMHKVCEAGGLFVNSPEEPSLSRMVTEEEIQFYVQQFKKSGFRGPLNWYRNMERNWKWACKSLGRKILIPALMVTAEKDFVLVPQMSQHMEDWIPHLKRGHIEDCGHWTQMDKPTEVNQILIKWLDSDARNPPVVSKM
The test is described as follows: sEH inhibition assay (fluorescence).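 Also: enzyme preincubated with compound 30 min at 25 °C, then substrate added and fluorescence read after 15 min at 25 °C, 320 nm and 460 nm, versus DMSO negative control.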

Test [1] has as its system mice with chronic heart failure (TAC). Nature of the test: Anti-heart failure effect in vivo, TAC mouse model. The settings on record: for impaired cardiac function (EF value, FS value, dp/dt reduced by TAC): daily gavage 0.2 mg/kg and 0.4 mg/kg; for cross-sectional area of cardiomyocytes, HE staining (myocardial hypertrophy) / positive area of Sirius red staining (myocardial fibrosis): daily gavage eight weeks, I-1, I-23 0.2 and 0.4 mg/kg, glimepiride 1.2 mg/kg. From the text:
(§1) 12-week-old male C57BL/6 mice, which were purchased from Gempharmatech Co., Ltd, were raised in the SPF animal house of Tongji Medical College, Huazhong University of Science and Technology. After one week of acclimatization in the animal house, the mice were subjected to thoracic aortic constriction as the TAC group. Another group of mice were subjected to thoracotomy without ligation of thoracic aorta as Sham group. Meanwhile, AUDA was used as the positive control.
(§2) Cardiac ultrasound detection was performed on a Visual Sonics Vevo 2100 small animal ultrasound imager. The major measurement indicators include heart rate (HR), left ventricular ejection fraction (LVEF), left ventricular fractional shortening (LVFS), left ventricular internal dimension-diastole (LVIDd) and left ventricular internal dimension-systole (LVIDs), and left ventricular posterior wall thickness (LVPWd and LVPWs).
(§3) The detection was performed on a Millar pressure-volume system from Millar Instr Ment PowerLab. After the animals were anesthetized to an appropriate extent, a midline incision was made in the neck, the right common carotid artery was separated, ligated at the distal end and clipped at the proximal end. A V-shaped incision was made on the artery with microscissors, and a microcatheter was inserted to the left ventricle. Signals were recorded through a conduction system to obtain hemodynamic data such as heart rate (HR), left ventricular end diastolic pressure (PED), left ventricular end systolic pressure (PES), maximum rate of decrease in left ventricular pressure (−dp/dtmin), and maximum rate of increase in left ventricular pressure (+dP/dtmax).
(§4) The myocardial tissue was placed in an embedding frame, soaked and fixed in neutral formaldehyde solution, dehydrated, and embedded in paraffin. The paraffin block was then sliced into sections with a thickness of 4 μm on a microtome. The general appearance of the myocardium was observed through HE staining, and the myocardial fibrosis was observed through Sirius red staining.
(§5) Total RNA was extracted using Invitrogen's Trizol reagent, then cDNA was obtained using TAKARA's reverse transcription kit, and finally the mRNA content of related genes was amplified with specific primers.
(§6) Cardiac ultrasound examination was performed two weeks after TAC surgery. 24 TAC mice with no significant difference in cardiac function were selected and randomly divided into a model group (TAC) and a treatment group (TAC+compound). The model group received no other treatment, while the treatment group received daily gavage (0.2 mg/kg and 0.4 mg/kg for I-1 and I-23 of the present application, and 1.2 mg/kg for glimepiride). Eight weeks later, i.e., at the chronic heart failure phase, the animals were sacrificed, and tissue specimens were collected to perform the above detections.

Test [2] relates to PE induced cardiomyocyte remodeling (AC16). Nature of the test: Inhibitory effect on PE induced myocardial injury (BNP mRNA). The test is classed as cell-based, human. Particulars: PE 100 μM, 24 hours; compounds 0.1, 0.5, 1 μM; glimepiride 10 μM. As for the experimental part: (§7) Biomaterial sources: Human cardiomyocyte cell line AC16 was purchased from ATCC, USA. Phenylephrine (PE) was purchased from Sigma Company. AUDA was purchased from Cayman Company.
PE was dissolved in disinfected deionized water with a working concentration of 100 μM. The compounds were dissolved in DMSO, and the working concentrations were 0.1, 0.5, 1 μM for the compounds of the present invention, 10 μM for glimepiride, and 1 μM for AUDA. The incubation time was 24 hours.
as §5
(§8) After 24 hours of incubation, cardiomyocytes were collected to perform the above detection.

The target of test [3] is T2, sEH in cardiomyocytes (AC16) (Homo sapiens, UniProt P34913).
T2 construct: endogenous in cells; host or cells: AC16 human cardiomyocyte cell line (ATCC)
T2 sequence (P34913 1-555): T1 sequence (P34913 1-555)
The test is described as follows: Inhibition assay on sEH in cardiomyocytes (14,15-EET/DHET ELISA). The test is classed as cell-based. Particulars: AC16, 0.1, 1 and 10 μM, 24 hours; for content of DHET in cardiomyocytes / content of EETs in cardiomyocytes: compared with the control. As to the method: as §7
The compounds were dissolved in DMSO. The working concentrations were 0.1, 1 and 10 μM for the compounds of the present invention, 0.1, 1 and 10 μM for glimepiride, and 1 μM for AUDA. The incubation time was 24 hours.
(§9) The ELISA detection kit (BIOTARGET 14,15-EET/DHET ELISA KIT) from Detroit R&D company was used, and the experiment was conducted according to the instructions of the kit.
as §8
In general terms: An ELISA detects its analyte on a solid surface through an enzyme-linked reagent.

The test system of test [4] is mice with chronic heart failure (TAC). Nature of the test: TAC mouse model, comparison of I-23 and Empagliflozin. The test is classed as in vivo.
Excerpt: as §1, §2, §3, §4, §5
Cardiac ultrasound examination was performed two weeks after TAC surgery. 24 TAC mice with no significant difference in cardiac function were selected and randomly divided into a model group (TAC) and a treatment group (TAC+compound). The model group received no other treatment, while the treatment group received daily gavage (0.44 mg/kg for I-23 or 10 mg/kg for Empagliflozin). Eight weeks later, i.e., at the chronic heart failure phase, the animals were sacrificed, and tissue specimens were collected to perform the above detections.
This experiment was to compare the ameliorative effects of I-23 and Empagliflozin on chronic heart failure.

In test [5] the target is T3, sEH in the hearts of mice with chronic heart failure (Mus musculus, UniProt P34914).
T3 construct: from tissue; host or cells: heart tissue of male C57BL/6 mice after TAC surgery
T3 sequence (P34914 1-554): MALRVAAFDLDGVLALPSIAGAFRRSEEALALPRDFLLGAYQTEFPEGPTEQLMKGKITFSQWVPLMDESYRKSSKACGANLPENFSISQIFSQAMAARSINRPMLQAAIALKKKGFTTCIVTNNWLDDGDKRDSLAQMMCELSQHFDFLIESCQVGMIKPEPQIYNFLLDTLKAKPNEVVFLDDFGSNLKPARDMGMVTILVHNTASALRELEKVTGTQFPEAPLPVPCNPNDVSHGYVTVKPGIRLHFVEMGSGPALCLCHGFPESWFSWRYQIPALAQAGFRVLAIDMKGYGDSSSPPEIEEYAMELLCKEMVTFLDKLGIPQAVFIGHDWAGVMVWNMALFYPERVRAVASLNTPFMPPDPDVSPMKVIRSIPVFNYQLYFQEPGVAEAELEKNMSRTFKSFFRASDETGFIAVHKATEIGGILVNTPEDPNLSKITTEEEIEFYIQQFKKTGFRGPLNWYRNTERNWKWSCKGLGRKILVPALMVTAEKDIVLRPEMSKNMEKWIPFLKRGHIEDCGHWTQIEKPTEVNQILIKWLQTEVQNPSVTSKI
The test is described as follows: sEH enzymic activity in hearts of TAC mice. The test is classed as in vivo. The settings on record: daily gavage 1.2 mg/kg, eight weeks. As to the method:
as §9, §1, §6

Where [6] appears, read: I-23 0.44 mg/kg vs Empagliflozin 10 mg/kg.
[7] abbreviates: mice, daily gavage eight weeks, I-23 0.44 mg/kg, Empagliflozin 10 mg/kg.

The term IC50 denotes the concentration needed to halve the response being measured.

Protocol for sEH (human recombinant): sEH Assay Buffer was purchased from Cayman Chemical; sEH (human recombinant) was purchased from Cayman Chemical; sEH substrate was purchased from Cayman Chemical. The working solution of 20% DMSO for the compounds was prepared by mixing dimethyl sulfoxide with water in a volume ratio of 1:4, and shaking to mix well.
sEH Assay Buffer (10×), SEH (human recombinant) and sEH substrate were thawed on ice.
The sEH Assay Buffer (lux) was prepared into a 1×sEH Assay Buffer with deionized water. 12 μL of sEH was added with 588 µL of 1× Assay Buffer to be diluted 50 times to obtain a sEH working solution. 180 µL of 1× Assay Buffer was added into the corresponding wells; the sEH working solution was added to the corresponding wells at 5 μL/well; the working solution of 20% DMSO for the compounds was added into the corresponding wells at 5 μL/well, and blank wells and negative control wells added with an equal amount of DMSO were set. After centrifuged at 1000 rpm for 1 minute, the wells were incubated at 25° C. for 30 minutes. After incubation, the substrate was added into the 96-wells plate at 5 μL/well and the plate was centrifuged at 1000 rpm for 1 minute. After incubation at 25° C. for 15 minutes, fluorescence values were read at emission wavelengths of 320 nm and 460 nm.

With `CCC1=C(C)CN(C(=O)NCCc2ccc(S(=O)(=O)N(C)C(=O)N[C@H]3CC[C@H](C)CC3)cc2)C1=O` [Compound I-1], at sEH (human recombinant), the IC50 was 1 to 10 µM. Moreover, the “impaired cardiac function (EF value, FS value, dp/dt reduced by TAC)” value in test [1] (eight weeks) was “can inhibit this effect”. Further, the “expression of BNP in mouse cardiomyocytes after TAC” value in test [1] (daily gavage 0.2 and 0.4 mg/kg, eight weeks) is “can inhibit this effect”. Further, in test [1], the “cross-sectional area of cardiomyocytes, HE staining (myocardial hypertrophy)” value (from here on “cross-sectional area of cardiomyocytes”) is listed as “can inhibit this effect” and the “positive area of Sirius red staining (myocardial fibrosis)” value (shortened to “positive area of Sirius red staining”) was “can inhibit this effect”. Besides, the “BNP expression induced by PE (cardiomyocyte remodeling)” value (shortened to “BNP expression induced by PE”) in test [2] is “can inhibit this effect”. In test [3], the “content of DHET in cardiomyocytes” value is given as “reducing” and the “content of EETs in cardiomyocytes” value is reported as “significantly increase”.

Consider `Cc1ccc(S(=O)(=O)N(C)C(=O)NN2CC3CCCC3C2)cc1` (stereo not shown) [Compound I-4], for which, on sEH (human recombinant), the concentration for half-maximal inhibition (IC50) lay in the range of 1 to 10 µM. In addition, the “BNP expression induced by PE” value in test [2] is reported as “can inhibit this effect”. In test [3], the “content of DHET in cardiomyocytes” value was “reducing” and the “content of EETs in cardiomyocytes” value is listed as “significantly increase”.

Turning to `CCC1=C(C)CN(C(=O)NCCc2ccc(S(=O)(=O)NC(=O)N[C@H]3CC[C@H](COC(C)=O)CC3)cc2)C1=O` [Compound I-23], in test [4] (setting [6]), the “effect on cardiac hypertrophy relative to Empagliflozin” value is “comparable to that of Empagliflozin” and the “effect on impaired cardiac function relative to Empagliflozin” value is reported as “comparable to that of Empagliflozin”. In test [4] (setting [7]), the “cardiac hypertrophy (heart photographs, heart weight/tibia length HW/TL)” value is listed as “reversal effect”; the “expression of BNP in mouse cardiomyocytes after TAC” value is “can inhibit this effect”; the “impaired cardiac function (EF value, FS value, LVIDs, dp/dt)” value is listed as “can inhibit this effect”; the “positive area of Sirius red staining” value is “can inhibit this effect”. The concentration for half-maximal inhibition (IC50) on sEH (human recombinant) is 1 to 10 µM. In addition, the “impaired cardiac function (EF value, FS value, dp/dt reduced by TAC)” value in test [1] (eight weeks) is “can inhibit this effect”. In test [1], the “cross-sectional area of cardiomyocytes” value is “can inhibit this effect” and the “positive area of Sirius red staining” value is listed as “can inhibit this effect”. In test [2], the “BNP expression induced by PE” value was “can inhibit this effect”. Also, in test [3], the “content of DHET in cardiomyocytes” value is “reducing” and the “content of EETs in cardiomyocytes” value is reported as “significantly increase”.

As to `CCC1=C(C)CN(C(=O)NCCc2ccc(S(=O)(=O)NC(=O)N[C@H]3CC[C@H](C)CC3)cc2)C1=O` [glimepiride, reference compound], the “increase of sEH enzymic activity in the hearts after TAC” value in test [5] is “could inhibit this effect”. The “impaired cardiac function (EF value and dp/dt reduced by TAC)” value in test [1] (daily gavage 1.2 mg/kg, eight weeks) is reported as “can inhibit this effect”. Besides, in test [1], the “cross-sectional area of cardiomyocytes” value is on record as “can inhibit this effect” and the “positive area of Sirius red staining” value was “can inhibit this effect”. The “BNP expression induced by PE” value in test [2] was “can inhibit this effect”. The “inhibitory effect on enzymic activity of sEH in cardiomyocytes” value in test [3] (effect increases as the concentration increases) is “significant inhibitory effect”.

Source of the values: patent US20250145564A1, “SULFONYLUREA COMPOUND, PREPARATION METHOD THEREFOR, AND APPLICATION THEREOF” (SHANGHAI INSTITUTE OF MATERIA MEDICA, CHINESE ACADEMY OF …, priority 2021, published 2025).
